From patent US20250101436A1, “APTAMERS AND SMALL MOLECULE LIGANDS” (MeiraGTx UK II Limited, priority 2021, published 2025)

tested on: luciferase gene expression in HEK 293 cells in response to Comp. 004; test: Screen of riboswitch constructs with 12C6-1 variant aptamers (libraries N1-N5) against Comp. 004, luciferase in HEK 293 cells; format: cell-based, human; conditions: library N2 variant aptamers (J2-3, P3-J3-3a, J3a-2 randomized) of 12C6-1 in riboswitch constructs; in response to Comp. 004; HEK 293 cells
Source text: Cloning of riboswitch constructs containing 12C6-1 variant aptamer sequences: 12C6-1 aptamer sequence was used as template, and nucleobases were randomized at certain position in the sequence. Aptamers incorporating random mutagenesis were synthesized by Integrated DNA Technologies, Inc. Golden Gate cloning strategy (New England Biolabs, NEB) was used to clone the synthesized aptamer sequences into intron-exon-intron cassette to replace the 12C6-1 aptamer in the Luci-12C6-1 riboswitch construct, generating riboswitch constructs containing variant aptamer sequences.
To further improve the riboswitch activity in responding to Comp. 004 and related compounds, the aptamer sequence 12C6-1 was subject to mutagenesis to generate aptamer variants, and the riboswitches containing the variant aptamers were screened against Comp. 004 for the ones that have improved dynamic range of induced gene expression (the fold induction), in comparison with the fold induction by parental riboswitch construct Luci-12C6-1. […] These loop or junction region alone or together with stem region in proximity were chosen for random mutagenesis to generate riboswitches with re-engineered aptamer sequences with improved activity.
Five aptamer libraries N1, N2, N3, N4 and N5 were generated by randomizing nucleotides at positions in J2-4, J2-3/J3-3a/J3a-2/P3, L3a, J4-5/J5-4/P4 and L5 regions of the parent 12C6-1 sequence, respectively (see FIGS. 3a and 3b). Single bacterial colonies were picked and plasmids containing variant riboswitch constructs were screened in HEK 293 cells for improved gene regulation activity in response to 25 µM Comp. 004 as compared to parent riboswitch construct Luci-12C6-1.

Fold (induction of luciferase gene expression), 2.0 fold:
N2_2C4 (CTGGGGAGTCCTTCATGC; chemistry not given here)

Fold (induction of luciferase gene expression), 0.9 fold:
N2_2C6 (CTGGGGAGTCCTTCATGC; chemistry not given here)
N2_2C8 (CTGGGGAGTCCTTCATGC; chemistry not given here)
N2_2D3 (DNA CTGGGGAGTCCTTCATGC; chemistry not given here)
N2_2E6 (DNA CTGGGGAGTCCTTCATGC; chemistry not given here)
N2_2E8 (DNA CTGGGGAGTCCTTCATGC; chemistry not given here)
N2_2F3 (DNA CTGGGGAGTCCTTCATGC; chemistry not given here)
N2_2G11 (DNA CTGGGGAGTCCTTCATGC; chemistry not given here)
N2_2H9 (CTGGGGAGTCCTTCATGC; chemistry not given here)

Fold (induction of luciferase gene expression), 1.0 fold:
N2_2C5 (CTGGGGAGTCCTTCATGC; chemistry not given here)
N2_2D7 (DNA CTGGGGAGTCCTTCATGC; chemistry not given here)
N2_2D9 (DNA CTGGGGAGTCCTTCATGC; chemistry not given here)
N2_2F2 (DNA CTGGGGAGTCCTTCATGC; chemistry not given here)
N2_2F6 (DNA CTGGGGAGTCCTTCATGC; chemistry not given here)
N2_2F7 (DNA CTGGGGAGTCCTTCATGC; chemistry not given here)
N2_2F8 (DNA CTGGGGAGTCCTTCATGC; chemistry not given here)
N2_2F12 (DNA CTGGGGAGTCCTTCATGC; chemistry not given here)
N2_2G5 (DNA CTGGGGAGTCCTTCATGC; chemistry not given here)
N2_2G7 (DNA CTGGGGAGTCCTTCATGC; chemistry not given here)
N2_2G10 (DNA CTGGGGAGTCCTTCATGC; chemistry not given here)
N2_2H3 (CTGGGGAGTCCTTCATGC; chemistry not given here)
N2_2H4 (CTGGGGAGTCCTTCATGC; chemistry not given here)
N2_2H6 (CTGGGGAGTCCTTCATGC; chemistry not given here)
N2_2H10 (CTGGGGAGTCCTTCATGC; chemistry not given here)

Fold (induction of luciferase gene expression), 1.2 fold:
N2_2C9 (CTGGGGAGTCCTTCATGC; chemistry not given here)
N2_2C10 (CTGGGGAGTCCTTCATGC; chemistry not given here)
N2_2D10 (DNA CTGGGGAGTCCTTCATGC; chemistry not given here)
N2_2E5 (DNA CTGGGGAGTCCTTCATGC; chemistry not given here)
N2_2E10 (DNA CTGGGGAGTCCTTCATGC; chemistry not given here)
N2_2F4 (DNA CTGGGGAGTCCTTCATGC; chemistry not given here)
N2_2H11 (CTGGGGAGTCCTTCATGC; chemistry not given here)

Fold (induction of luciferase gene expression), 1.1 fold:
N2_2C1 (CTGGGGAGTCCTTCATGC; chemistry not given here)
N2_2C3 (CTGGGGAGTCCTTCATGC; chemistry not given here)
N2_2C12 (CTGGGGAGTCCTTCATGC; chemistry not given here)
N2_2D1 (CTGGGGAGTCCTTCATGC; chemistry not given here)
N2_2D2 (DNA CTGGGGAGTCCTTCATGC; chemistry not given here)
N2_2D6 (DNA CTGGGGAGTCCTTCATGC; chemistry not given here)
N2_2D8 (DNA CTGGGGAGTCCTTCATGC; chemistry not given here)
N2_2D12 (DNA CTGGGGAGTCCTTCATGC; chemistry not given here)
N2_2E2 (DNA CTGGGGAGTCCTTCATGC; chemistry not given here)
N2_2E7 (DNA CTGGGGAGTCCTTCATGC; chemistry not given here)
N2_2F1 (DNA CTGGGGAGTCCTTCATGC; chemistry not given here)
N2_2F10 (DNA CTGGGGAGTCCTTCATGC; chemistry not given here)
N2_2F11 (DNA CTGGGGAGTCCTTCATGC; chemistry not given here)
N2_2G3 (DNA CTGGGGAGTCCTTCATGC; chemistry not given here)
N2_2G4 (DNA CTGGGGAGTCCTTCATGC; chemistry not given here)
N2_2G6 (DNA CTGGGGAGTCCTTCATGC; chemistry not given here)
N2_2G8 (DNA CTGGGGAGTCCTTCATGC; chemistry not given here)
N2_2H1 (CTGGGGAGTCCTTCATGC; chemistry not given here)

Fold (induction of luciferase gene expression), 1.3 fold:
N2_2D11 (DNA CTGGGGAGTCCTTCATGC; chemistry not given here)
N2_2E3 (DNA CTGGGGAGTCCTTCATGC; chemistry not given here)
N2_2E12 (DNA CTGGGGAGTCCTTCATGC; chemistry not given here)
N2_2G2 (DNA CTGGGGAGTCCTTCATGC; chemistry not given here)
N2_2G9 (CTGGGGAGTCCTTCATGC; chemistry not given here)

Fold (induction of luciferase gene expression), 0.7 fold:
N2_2E4 (DNA CTGGGGAGTCCTTCATGC; chemistry not given here)

Fold (induction of luciferase gene expression), 0.6 fold:
N2_2D5 (DNA CTGGGGAGTCCTTCATGC; chemistry not given here)

Fold (induction of luciferase gene expression), 1.7 fold:
N2_2G1 (DNA CTGGGGAGTCCTTCATGC; chemistry not given here)

Fold (induction of luciferase gene expression), 0.8 fold:
N2_2C2 (CTGGGGAGTCCTTCATGC; chemistry not given here)
N2_2C7 (CTGGGGAGTCCTTCATGC; chemistry not given here)
N2_2D4 (DNA CTGGGGAGTCCTTCATGC; chemistry not given here)
N2_2H2 (CTGGGGAGTCCTTCATGC; chemistry not given here)
N2_2H7 (CTGGGGAGTCCTTCATGC; chemistry not given here)

Fold (induction of luciferase gene expression), 1.4 fold:
N2_2H8 (CTGGGGAGTCCTTCATGC; chemistry not given here)

same assay, conditions: library N5 variant aptamers (L5, X16-X21 randomized) of 12C6-1 in riboswitch constructs; in response to Comp. 004 treatment; HEK 293 cells

Fold (induction of luciferase gene expression), 638.8 fold:
N5_1A6 (CTGGGGAGTCCT; chemistry not given here)

Fold (induction of luciferase gene expression), 672.2 fold:
N5_1A2 (CTGGGGAGTCCT; chemistry not given here)

Fold (induction of luciferase gene expression), 291.5 fold:
N5_1A5 (CTGGGGAGTCCT; chemistry not given here)

Fold (induction of luciferase gene expression), 670.2 fold:
N5_1A1 (CTGGGGAGTCCT; chemistry not given here)

Fold (induction of luciferase gene expression), 659.9 fold:
N5_1A7 (CTGGGGAGTCCT; chemistry not given here)

Fold (induction of luciferase gene expression), 228.1 fold:
N5_1A3 (CTGGGGAGTCCT; chemistry not given here)
